From publication PMC9822058, “In Vitro Evaluation of α-amylase and α-glucosidase Inhibition of 2,3-Epoxyprocyanidin C1 and Other Constituents from Pterocarpus erinaceus Poir” (Molecules, 2022)
Where two headings read alike, the source gives them in different places.

Assays:
[1] = target: α-amylase from Bacillus licheniformis (Bacillus licheniformis, UniProt P06278); test: biochemical; assay type: biochemical; conditions: for inhibition at 50 µg/mL: read-out: α-amylase (% inh. at 50 µg/mL); for α-amylase inhibitory potential (in words): within the tested concentrations
Protocol: The α-amylase inhibitory activity was evaluated by using the starch– iodine method with some modifications. The enzyme α-amylase from Bacillus licheniformis was used and enzyme solution was prepared with phosphate buffer (20 mM pH = 6.9 phosphate buffer prepared with 6 mM NaCl); then, 50 µL of α-amylase and 25 µL of different concentrations of compound or extract solutions were mixed in a 96-well microplate. The mixture was pre-incubated for 10 min at 37 °C; then, 50 µL of starch solution (0.05%) was added and incubated for 10 min at 37 °C. Following incubation, the reaction was completed by adding HCl (0.1 M, 25 µL) and Lugol (100 µL) solutions, and the absorbance was recorded at 565 nm.

[2] = system: α-glucosidase from Saccharomyces cerevisiae; test: α-glucosidase inhibitory assay (PNPG substrate); assay type: biochemical; conditions: for α-glucosidase (% inh. at 50 µg/mL): highest test concentration; for α-glucosidase inhibitory potential (in words): within the tested concentrations
Protocol: The α-glucosidase inhibitory activity was evaluated according to the method described previously. 50 µL of phosphate buffer (0.01 M pH 6.9), 10 µL of different concentrations of compound or extract solution, 50 µL of α-glucosidase from Saccharomyces cerevisiae in phosphate buffer (0.01 M pH 6.0) and PNPG (4-N-nitrophenyl-α-D-glucopyranoside) 25 µL in phosphate buffer (0.01 M pH 6.9) were mixed in a 96-well microplate. The solution was then incubated for 20 min at 37 °C.

STZ-induced diabetes = conditions: doses of 20 and 40 mg/kg; cited from earlier work
[3] = read-out: α-amylase IC50 (converted)

α-amylase from Bacillus licheniformis, sequence (P06278 30-512): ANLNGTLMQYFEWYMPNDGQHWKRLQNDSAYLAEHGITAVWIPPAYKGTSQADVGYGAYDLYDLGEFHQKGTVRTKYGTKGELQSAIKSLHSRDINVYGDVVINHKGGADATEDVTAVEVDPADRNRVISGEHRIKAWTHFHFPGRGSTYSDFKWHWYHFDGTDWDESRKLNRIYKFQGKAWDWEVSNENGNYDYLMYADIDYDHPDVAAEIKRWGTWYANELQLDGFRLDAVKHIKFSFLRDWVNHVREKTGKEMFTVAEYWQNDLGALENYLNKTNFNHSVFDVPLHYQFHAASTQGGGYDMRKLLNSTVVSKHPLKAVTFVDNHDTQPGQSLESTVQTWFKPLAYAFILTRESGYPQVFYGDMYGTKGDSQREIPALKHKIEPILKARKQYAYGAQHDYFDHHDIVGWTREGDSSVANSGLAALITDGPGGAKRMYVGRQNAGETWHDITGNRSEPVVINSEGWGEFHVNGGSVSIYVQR

Compound | inhibition at 50 µg/mL [1] | α-glucosidase (% inh. at 50 µg/mL) [2] | IC50 [1, 3] | α-glucosidase IC50 [2] | IC50 [1] | α-amylase inhibitory potential (in words) [1] | antidiabetic potential in STZ-induced diabetic rats (STZ-induced diabetes) | α-glucosidase inhibitory potential (in words) [2]
C[C@H]1O[C@H](O[C@H]2[C@H](O)[C@@H](O)[C@@H](O[C@H]3[C@H](O)[C@@H](O)C(O)O[C@@H]3CO)O[C@@H]2CO)[C@H](O)[C@@H](O)[C@@H]1N[C@H]1C=C(CO)[C@@H](O)[C@H](O)[C@H]1O (some centres unmarked) [Acarbose, reference compound] | 72.5 ± 1.5% | 81.7 ± 0.8% | – | – | – | – | – | –
Oc1cc(O)c2c(c1)OC1(c3ccc(O)c(O)c3)OC1C2c1c(O)cc(O)c2c1OC(c1ccc(O)c(O)c1)C(O)C2c1c(O)cc(O)c2c1OC(c1ccc(O)c(O)c1)C(O)C2 (centres unmarked) [compound 1, 2,3-Epoxyprocyanidin C1] | 34.3 ± 0.7% | 53.4 ± 1.6% | > 57.8 µM | 41.6 ± 1.0 µg/mL | – | – | – | –
C[C@H]1C(=O)CC[C@@H]2[C@]1(C)CC[C@H]1[C@@]2(C)CC[C@@]2(C)[C@@H]3CC(C)(C)CC[C@]3(C)CC[C@]12C [compound 2, friedelin] | 21.5 ± 0.6% | 32.1 ± 0.1% | – | >50 µg/mL | > 117 µM | relatively low | antidiabetic potential | relatively low
C=C(C)[C@@H]1CC[C@]2(CO)CC[C@]3(C)[C@H](CC[C@@H]4[C@@]5(C)CC[C@H](O)C(C)(C)[C@@H]5CC[C@]43C)[C@@H]12 [compound 3, betulin] | 19.3 ± 0.4% | 28.5 ± 0.3% | – | >50 µg/mL | > 113 µM | relatively low | – | relatively low
COc1ccc(C(C)C(=O)c2ccc(O)cc2O)cc1 (centres unmarked) [compound 4, angolensin] | 33.7 ± 0.5% | 54.1 ± 1.3% | > 184 µM | 43.4 ± 0.5 µg/mL | – | – | – | –
COc1cc(O)c2c(=O)c(-c3ccc(O)cc3)coc2c1 [compound 5, 7-methoxygenistein] | 32.2 ± 1% | 50.6 ± 1.2% | – | 47.6 ± 0.9 µg/mL | > 176 µM | – | – | –
COc1ccc2c(=O)c(-c3ccc(O)cc3)coc2c1 [compound 6, 7-methoxydaidzein] | 34.2 ± 0.5% | 51.8 ± 0.9% | > 186 µM | 46.3 ± 0.2 µg/mL | – | – | – | –
COc1c(-c2ccc(O)c(O)c2)oc2cc(O)cc(O)c2c1=O [compound 7, 3-O-methyl quercetin] | 50.2 ± 2% | 54.0 ± 1.0% | 152 µM | 39.5 ± 1.2 µg/mL | – | – | – | –
O=C(O)[C@H]1O[C@@H](Oc2cc(O)c3c(=O)cc(-c4ccc(O)cc4)oc3c2)[C@H](O)[C@@H](O)[C@@H]1O [compound 8, apigenin 7-O-glucoronide] | 50.9 ± 0.8% | 55.2 ± 1.1% | 109 µM | 40.9 ± 1.3 µg/mL | – | – | – | –
O=C1C[C@@H](c2ccc(O)cc2)Oc2cc(O[C@@H]3O[C@H](CO)[C@@H](O)[C@H](O)[C@H]3O)cc(O)c21 [compound 9, naringenin 7-O-β-D-glucopyranoside] | 50.5 ± 1.2% | 53.7 ± 0.4% | – | 44.8 ± 0.6 µg/mL | – | – | – | –
COc1cc2c(=O)oc3c(OC)c(OC4OC(COC5OC(C)C(O)C(O)C5O)C(O)C(O)C4O)cc4c(=O)oc(c1OC)c2c34 (centres unmarked) [compound 10, 3,3′,4-Trimethoxy-4′-rutinosylellagic acid] | 45.4 ± 0.3% | 51.8 ± 0.9% | > 76.6 µM | 45.0 ± 0.8 µg/mL | – | – | – | –
COc1cc2c(=O)oc3c(OC)c(OC4OC(COC5OC(C)C(OC(C)=O)C(OC(C)=O)C5OC(C)=O)C(OC(C)=O)C(OC(C)=O)C4OC(C)=O)cc4c(=O)oc(c1OC)c2c34 (centres unmarked) [compound 11, 3,3′,4-Trimethoxy-4′-hexaacetylrutinosylellagic acid] | 43.5 ± 0.6% | 50.7 ± 0.2% | > 55.3 µM | 47.5 ± 0.4 µg/mL | – | – | – | –
